From the METLIN SMRT retention time set (Domingo-Almenara et al. 2019)
Each block holds one molecule with its values, some of them ahead of it.

Assay: gradient 5% acetonitrile 3 min, to 50% in 2 min, to 85% in 15 min, held 3 min, 100 µL/min
Settings: column: Zorbax Extend-C18 2.1 x 50 mm; eluents: water / acetonitrile, 0.1% formic acid
Method in brief: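 In both positive and negative ionization mode, a quadrupole time-of-flight mass spectrometer coupled to HPLC analyzed pure standards run in mixtures of ~100 molecules. The Zorbax Extend-C18 column (2.1 × 50 mm, 1.8 μm) was operated at 100 μL/min with water and acetonitrile, each containing 0.1% formic acid. The dead volume was 40 μL and the dwell volume 900 μL. Retention time came from adduct peaks that were computationally picked and individually inspected by hand.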

SMILES: CCc1nc(NC(=O)C2CC(=O)N(c3n[nH]c4cccc(F)c34)C2)sc1C (centres undefined)
RP-LC retention time: 740 s

SMILES: Cc1cnc(-c2ccccc2)n1C1CN(Cc2ccc(F)cc2F)C1
RP-LC retention time: 572 s

SMILES: Cc1csc(-c2cc(S(=O)(=O)NCCCN3CCCc4ccccc43)c(C)s2)n1
RP-LC retention time: 1420 s

SMILES: Cc1ccccc1OCC(=O)NCC1CC(=O)N(c2ccccc2)C1 (centres undefined)
RP-LC retention time: 741 s

SMILES: Cc1ccc2[nH]cc(CCNC(=O)NC3CCCCC3)c2c1
RP-LC retention time: 874 s

SMILES: C=CCN(Cc1nc(-c2cccc(C)c2)no1)C(=O)Nc1ccccc1OC
RP-LC retention time: 1120 s

SMILES: CCCCC(=O)N(CCC)CCC
RP-LC retention time: 965 s

SMILES: Cc1nc(-c2csc(S(=O)(=O)N3CCCC(C(=O)Nc4ccc(F)c(F)c4)C3)c2)no1 (centres undefined)
RP-LC retention time: 1020 s

SMILES: Cc1ccc(CC(=O)Nc2cc(-c3nnc(C4CC4)o3)sc2C)cc1
RP-LC retention time: 981 s

SMILES: O=C(Cc1cccs1)Nc1ccc(Nc2ccc(-n3cccn3)nn2)cc1
RP-LC retention time: 708 s

SMILES: CCn1nccc1-c1cccc(-c2noc(-c3c(F)cccc3F)n2)c1
RP-LC retention time: 1270 s

SMILES: Cc1ccc(-c2nnc(Cc3nc(-c4ccccc4C)no3)o2)cc1
RP-LC retention time: 1100 s

SMILES: CCC(C(=O)NCc1ccco1)n1nc(C)c2c(C)n(-c3ccccc3)nc2c1=O (centres undefined)
RP-LC retention time: 831 s

SMILES: Cc1sc2ccn(C)c(=O)c2c1C(=O)N1CCN(c2ccccn2)CC1
RP-LC retention time: 564 s

SMILES: COc1ccc(-c2nc(CC3CCNC3)no2)cc1 (centres undefined)
RP-LC retention time: 607 s

SMILES: Cc1ccc(S(=O)(=O)N2CCc3nc(-c4ccc(F)cc4)ncc3C2)c(C)c1
RP-LC retention time: 1220 s

SMILES: COc1cc(Cl)ccc1C(=O)N1CCN(c2cc(-c3ccc(Cl)cc3)[nH]n2)CC1
RP-LC retention time: 923 s

SMILES: CC(C)NC(=O)CN1C(=O)CCSc2ccccc21
RP-LC retention time: 708 s

SMILES: COc1c(C(=O)NC(C)C)sc2ccc(F)cc12
RP-LC retention time: 952 s

SMILES: COc1ccc(OCC(=O)NS(=O)(=O)c2ccccc2)cc1
RP-LC retention time: 745 s

SMILES: COc1ccc(S(=O)(=O)N2CCCC(C(=O)Nc3cccc(C)c3)C2)cc1Cl (centres undefined)
RP-LC retention time: 1060 s

SMILES: CC(=O)N1CCN(c2nc3c(s2)CC(C(=O)Nc2ccc(Cl)c(C)c2)CC3)CC1 (centres undefined)
RP-LC retention time: 652 s

SMILES: Cc1ccc(CN2CCC(CNC(=O)Cn3c(=O)c(C)nc4cc(C)c(C)cc43)C2)cc1 (centres undefined)
RP-LC retention time: 638 s

SMILES: Cc1ccc2nc3sc(C(=O)Nc4c(C)n(C)n(-c5ccccc5)c4=O)cc3c(=O)n2c1
RP-LC retention time: 635 s

SMILES: CCOC(=O)C1=C(CN(C)c2ccccc2)NC(=O)NC1c1ccc(C)cc1 (centres undefined)
RP-LC retention time: 1020 s

SMILES: O=C(c1cnccn1)N1CCc2nn(CC3CC3)c(=O)n2CC1
RP-LC retention time: 598 s

SMILES: Cc1ccc(NC(=O)C2CCCN(c3ncnc4c3nc3n4CCCCC3)C2)cc1F (centres undefined)
RP-LC retention time: 785 s

SMILES: Cc1cccc(NC(=O)N2CCN(c3cnn4c(C)nnc4c3)CC2)c1
RP-LC retention time: 627 s

SMILES: O=C(Cn1c(=O)nc(-c2ccccc2)c2ccccc21)N1CCN(c2ccccn2)CC1
RP-LC retention time: 609 s

SMILES: C=CCN1CCc2c(cc(O)c(O)c2Cl)C(c2ccccc2)C1 (centres undefined)
RP-LC retention time: 666 s

SMILES: Cc1noc(C)c1-c1ccc(S(=O)(=O)NCc2ccc(Cl)cc2)cc1
RP-LC retention time: 969 s

SMILES: CN1CCN(c2ccc(-c3ccc(NC(=O)c4cc(Cl)ccc4Cl)cc3)nn2)CC1
RP-LC retention time: 646 s

SMILES: O=C(c1cncc(Br)c1)N1CCN(c2ccc(-c3cccs3)nn2)CC1
RP-LC retention time: 651 s

SMILES: O=C(C1CCC1)N1[C@H]2CC[C@@H]1c1cnc(-c3ccccc3)nc1C2
RP-LC retention time: 876 s

SMILES: CCN(CC)CCNC(=S)Nc1ccc2nc(N3CCN(CC)CC3)cc(C)c2c1
RP-LC retention time: 493 s

SMILES: CCc1ccc(-n2nnc(C(=O)NCCOC)c2-c2ccncc2)cc1
RP-LC retention time: 725 s

SMILES: CCOC(=O)c1c(C)[nH]c(NC(=O)N2CCN(c3ccc(OC)cc3)CC2)c1C
RP-LC retention time: 703 s

SMILES: CCN1C(=O)c2cccnc2Sc2cc(NC(=O)c3ccccc3Cl)ccc21
RP-LC retention time: 828 s

SMILES: CCC(=O)Nc1ccc(CCc2nc3ccc(C(=O)NC4CCCCCC4)cc3[nH]2)cc1
RP-LC retention time: 671 s

SMILES: Cc1ccc(-c2cn3c(CC(=O)NCc4ccco4)csc3n2)cc1C
RP-LC retention time: 750 s

SMILES: O=C(NCc1nc(-c2ccc3oc(-c4ccccc4)nc3c2)no1)c1ccccc1
RP-LC retention time: 1010 s

SMILES: CCn1c(=O)sc2cc(S(=O)(=O)N3CCC(C(=O)NCC(C)c4ccccc4)CC3)ccc21 (centres undefined)
RP-LC retention time: 929 s

SMILES: O=C(NCCc1ccsc1)C1CC(=O)N(c2ccc(F)cc2)C1 (centres undefined)
RP-LC retention time: 698 s

SMILES: CCNC(=O)C1CCCN(c2nc3ncn(CC(=O)Nc4cc(C)cc(C)c4)c(=O)c3s2)C1 (centres undefined)
RP-LC retention time: 716 s

SMILES: Cc1cc(C)cc(Nc2c(C(=O)N3CCCCC3C)cnc3nc(C)ccc23)c1 (centres undefined)
RP-LC retention time: 703 s

SMILES: CCCC(=O)Nc1ccc(OCc2cc(C(=O)NC(C)CC)no2)cc1 (centres undefined)
RP-LC retention time: 819 s

SMILES: O=C(C1CCC1)N1CCC(c2noc(-c3cnccn3)n2)C1 (centres undefined)
RP-LC retention time: 655 s

SMILES: Cc1ccc(C(=O)N2CCC(c3nc(-c4ccccc4)no3)C2)s1 (centres undefined)
RP-LC retention time: 949 s

SMILES: CCN(CC)C(=O)c1cnc2snc(C)c2c1N1CCC(C(=O)Nc2ccc(OC)c(Cl)c2)CC1
RP-LC retention time: 900 s

SMILES: O=C(Cn1nc2c3cc(-c4ccccc4)nn3ccn2c1=O)Nc1ccc(Br)cc1
RP-LC retention time: 947 s

SMILES: CN(CC(=O)Nc1ccc2c(c1)OCO2)c1nc2c(F)cccc2s1
RP-LC retention time: 828 s

SMILES: COc1cc(CNC(=O)C2CCCN(c3nccnc3Sc3ccccc3)C2)cc(OC)c1 (centres undefined)
RP-LC retention time: 986 s

SMILES: CCC(c1cccs1)N1C(=O)[C@H]2CN(S(=O)(=O)c3ccccc3)C[C@H]2C1=O (some centres undefined)
RP-LC retention time: 946 s

SMILES: Cc1cc(C(N)=O)c(C)n1Cc1ccc(F)cc1
RP-LC retention time: 752 s

SMILES: COc1ccc2c(c1)C1(CCN(C(=O)c3ccccc3OC)C1)C(=O)N2C (centres undefined)
RP-LC retention time: 725 s

Next, values leading:

RP-LC retention time: 695 s
SMILES: CCn1cnc(S(=O)(=O)N2CCC(C(=O)Nc3cccc(Cl)c3)CC2)c1

RP-LC retention time: 622 s
SMILES: CN(C)c1cc(OC2CCN(C(=O)c3cccc4[nH]ccc34)C2)ncn1 (centres undefined)

RP-LC retention time: 745 s
SMILES: CCCC1(CO)CCCN1C(=O)c1ccc2[nH]ccc2c1 (centres undefined)

RP-LC retention time: 1230 s
SMILES: COc1ccc(-c2noc(-c3nnn4c3COC(c3ccc(Cl)cc3)C4)n2)cc1F (centres undefined)

RP-LC retention time: 925 s
SMILES: CCn1cc(-c2nc(CC(=O)Nc3ccc4c(c3)OCCO4)cs2)c2cccnc21

RP-LC retention time: 768 s
SMILES: CCC(C(=O)NCC1CCCO1)n1c2ccccc2c2cnn(C)c(=O)c21 (centres undefined)

RP-LC retention time: 739 s
SMILES: O=C(C1CC1)N1CCCn2nc(-c3ccccc3)cc2C1

RP-LC retention time: 556 s
SMILES: Cc1cc(C(=O)N2CCN(c3ccccn3)CC2)nc2ccnn12

RP-LC retention time: 649 s
SMILES: COc1ccc(CCC(=O)N2CCc3c(c(C(=O)N4CCCC(C(=O)NC5CC5)C4)nn3C)C2)cc1 (centres undefined)

RP-LC retention time: 1200 s
SMILES: COc1ccc(OC)c(-c2csc(-c3nnn(-c4ccc(Cl)cc4)c3N)n2)c1

RP-LC retention time: 703 s
SMILES: CC(C)CC(=O)N1CC(F)(F)C[C@H]1c1nnc(-c2cnccn2)o1

RP-LC retention time: 765 s
SMILES: CC1(C(=O)NCc2ccc(F)cc2)CCCN(C(=O)NCc2ccco2)C1 (centres undefined)

RP-LC retention time: 896 s
SMILES: COC(=O)c1cc2c(=O)n(-c3nccs3)ccc2nc1C

RP-LC retention time: 848 s
SMILES: Clc1ccc(Nc2nc(-c3ccncc3)nc3ccccc23)cc1

RP-LC retention time: 611 s
SMILES: CCOC(=O)CNC(=O)N1CCN(Cc2nc3cccnc3n2-c2ccc(C)cc2)CC1

RP-LC retention time: 663 s
SMILES: N#Cc1cnc2nc(-c3ccccc3)nn2c1N

RP-LC retention time: 794 s
SMILES: Cc1nnc(-c2cc(NC(=O)Cc3c[nH]c4ccccc34)c(C)s2)o1

RP-LC retention time: 640 s
SMILES: O=C(Nc1cccc(-c2nnc3n2CCCC3)c1)c1ccoc1

RP-LC retention time: 832 s
SMILES: N#Cc1ccc(S(=O)(=O)N2CCC(C(=O)NCC(=O)N3CCCc4ccccc43)CC2)cc1

RP-LC retention time: 852 s
SMILES: CCN1c2ccc(Cl)cc2C(=O)NC12CCN(C(=O)Nc1cccc(OC)c1)CC2

RP-LC retention time: 1070 s
SMILES: O=C(c1ccoc1)N1CC(Oc2cccc(-c3nc(-c4ccccc4)no3)c2)C1

RP-LC retention time: 685 s
SMILES: O=C(c1cccs1)N1CCC(n2c(-c3ccoc3)nc3cccnc32)C1 (centres undefined)

RP-LC retention time: 732 s
SMILES: C=CCNC(=O)N1CCCN(C2=NS(=O)(=O)C(c3ccc(C)cc3)=C2C)CC1

RP-LC retention time: 718 s
SMILES: CCOC(=O)CNC(=O)N1CCCN(C2=NS(=O)(=O)C(c3ccccc3)=C2C)CC1

RP-LC retention time: 1020 s
SMILES: CC1CCc2onc(C(=O)N3CCN(c4ccccc4)CC3)c2C1 (centres undefined)

RP-LC retention time: 1150 s
SMILES: Cc1sc(-c2noc(C3CCC3)n2)cc1NC(=O)c1ccc(C(F)(F)F)cc1

RP-LC retention time: 894 s
SMILES: COc1nc(-c2ccc3c(c2)OCO3)n(-c2ccc(NC(=O)CSc3ccccc3)cc2)n1

RP-LC retention time: 1020 s
SMILES: O=C(O)Cc1sc(Nc2ccc(Br)cc2)nc1-c1ccccc1

RP-LC retention time: 770 s
SMILES: O=C(Nc1cccc(-c2ccc(N3CCOCC3)nn2)c1)Nc1ccc(F)c(Cl)c1

RP-LC retention time: 859 s
SMILES: O=C(Nc1ccccc1)N1CCc2nc(-c3ccccc3)ncc2C1

RP-LC retention time: 816 s
SMILES: CN(CCc1noc(-c2ccc(C(=O)N3CCCC3)cc2)n1)C(=O)Cc1ccc(Cl)cc1

RP-LC retention time: 1110 s
SMILES: O=S(=O)(c1ccccc1Br)N1CCCC1c1nc(-c2ccc(F)cc2)no1 (centres undefined)

RP-LC retention time: 909 s
SMILES: Cc1cc(S(=O)(=O)Nc2ccc3c(c2)CCC(=O)N3CC(C)C)ccc1F

RP-LC retention time: 1290 s
SMILES: COc1cc(OC)cc(-c2nc(C3CC(=O)N(c4ccc(Cl)cc4)C3)no2)c1 (centres undefined)
